Experimental findings from patent publication US7829665B2 (priority 2005, dated 2010) are described below.

This assay addresses T1, full-length NS3/NS4A-2 (HCV NS3 protease) (Hepatitis C virus genotype 1a, UniProt P27958).
T1 construct: Recombinant E. coli or Baculovirus full-length NS3 was diluted to 3.33 μM with assay buffer; made in house; host or cells: E. coli or baculovirus (BV) expression system
The assay can be described thus: NS3-NS4 protease assay / NS3 inhibition assay (RETS1 substrate, fluorescence kinetic read). It counts as biochemical. The settings on record: recombinant E. coli or Baculovirus full-length NS3 with NS4A-2; read-out: NS3-NS4 IC50. As for the experimental part:
NS3 complex formation with NS4A-2.
Recombinant E. coli or Baculovirus full-length NS3 was diluted to 3.33 μM with assay buffer and transferred material to an eppendorf tube and place in water bath in 4° C. refrigerator. The appropriate amount of NS4A-2 to 8.3 mM in assay buffer was added to equal the volume of NS3 in step 2.1.1 (conversion factor—3.8 mg/272 μL assay buffer). The material was transferred to an eppendorf tube and place in water bath in 4° C. refrigerator.
After equilibration to 4° C., equal volumes of NS3 and NS4A-2 solutions were combined in an eppendorf tube, mix gently with a manual pipettor, and incubate mixture for 15 minutes in the 4° C. water bath. Final concentrations in the mixture are 1.67 μM NS3, 4.15 mM NS4A-2 (2485-fold molar excess NS4A-2).
After 15 minutes at 4° C., the NS3/NS4A-2 eppendorf tube was removed and place it in a room temperature water bath for 10 minutes. NS3/NS4A-2 was alliquoted at appropriate volumes and store at −80° C. (E. coli NS3 run at 2 nM in assay, aliquot at 25 μL. BV NS3 run at 3 nM in assay, aliquot at 30 μL).
Sample compounds were dissolved to 10 mM in DMSO then diluted to 2.5 mM (1:4) in DMSO. Typically, compounds were added to an assay plate at 2.5 mM concentration, yielding upon dilution a starting concentration of 50 microM in the assay inhibition curve. Compounds were serial diluted in assay buffer to provide test solutions at lower concentrations.
The E. coli. NS3/NS4A-2 was diluted to 4 nM NS3 (1:417.5 of 1.67 μM stock−18 μL 1.67 μM stock+7497 μL assay buffer). The BV NS3/NS4A-2 was diluted to 6 nM NS3 (1:278.3 of 1.67 μM stock−24 μL 1.67 μM stock+6655 μL assay buffer). Using the manual multichannel pipettor, careful not to introduce bubbles into the plate, add 50 μL assay buffer to wells A01-H01 of a black Costar 96-well polypropylene storage plate.
Using the manual multichannel pipettor, careful not to introduce bubbles into the plate, add 50 μL of diluted NS3/NS4A-2 from step 2.2.6 to wells A02-H12 of plate in step 2.2.7. Using the manual multichannel pipettor, careful not to introduce bubbles into the plate, transfer 25 μL of the wells in drug dilution plate in step 2.2.5 to corresponding wells in assay plate in step 2.2.8. Change tips on multichannel pipettor for each row of compounds transferred. Using the manual multichannel pipettor, careful not to introduce bubbles into the plate, mix the wells from the assay plate in step 2.2.9 by aspirating and dispensing 35 μL of the 75 μL in each well five times. Change tips on multichannel pipettor for each row of wells mixed. Cover plate with a polystyrene plate lid and pre-incubate the plate from step 2.2.10 containing NS3 protease and sample compounds 10 minutes at room temperature. While plate from step 2.2.11 is pre-incubating, dilute RETS1 substrate in a 15 mL polypropylene centrifuge tube. Dilute RETS1 substrate to 8 μM (1:80.75 of 646 μM stock−65 μL 646 μM stock+5184 μL assay buffer).
After the plate in step is done pre-incubating, and using the manual multichannel, add 25 μL of substrate to all wells on the plate. Quickly mix the plate as in step 2.2.10, mixing 65 μL of the 100 μL in the wells.
Read the plate in kinetic mode on the Molecular Devices SpectraMax Gemini XS plate reader. Reader settings: Read time: 30 minutes, Interval: 36 seconds, Reads: 51, Excitation λ: 335 nm, Emission λ: 495 nm, cutoff: 475 nm, Automix: off, Calibrate: once, PMT: high, Reads/well: 6, Vmax pts: 21 or 28/51 depending on length of linearity of reaction
IC50 s are determined using a four parameter curve fit equation, and converted to Ki's using the following Km's: • Full-length E. coli NS3—2.03 μM • Full-length BV NS3—1.74 μM where Ki=IC50/(1+[S]/Km)) • Quantitation by ELISA of the selectable marker protein, Neomycin phosphotransferase II (NPTII) in the HCV Sub-Genomic Replicon, GS4.3

T1 sequence (P27958 1027-1657): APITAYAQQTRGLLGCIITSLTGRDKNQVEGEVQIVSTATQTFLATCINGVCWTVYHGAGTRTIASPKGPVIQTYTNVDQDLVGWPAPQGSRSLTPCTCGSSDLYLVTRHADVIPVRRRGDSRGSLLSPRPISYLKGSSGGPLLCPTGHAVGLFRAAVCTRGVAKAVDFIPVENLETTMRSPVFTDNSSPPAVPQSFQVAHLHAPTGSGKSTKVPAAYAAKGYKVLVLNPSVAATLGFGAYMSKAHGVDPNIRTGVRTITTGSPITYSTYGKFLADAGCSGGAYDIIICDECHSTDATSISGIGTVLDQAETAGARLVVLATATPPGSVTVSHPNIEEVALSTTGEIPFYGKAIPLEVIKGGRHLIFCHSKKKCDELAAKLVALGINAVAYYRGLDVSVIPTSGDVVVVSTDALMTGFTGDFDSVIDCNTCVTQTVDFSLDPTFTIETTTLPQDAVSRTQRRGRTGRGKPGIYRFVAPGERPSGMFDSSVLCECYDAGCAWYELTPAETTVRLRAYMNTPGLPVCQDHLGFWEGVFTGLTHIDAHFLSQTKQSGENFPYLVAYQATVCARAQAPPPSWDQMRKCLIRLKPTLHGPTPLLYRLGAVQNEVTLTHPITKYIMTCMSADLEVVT

For `CC(C)(C)C(O)C(=O)N[C@H]1CCCCC/C=C\[C@@H]2C[C@@]2(C(=O)NS(=O)(=O)C2CC2)NC(=O)[C@@H]2C[C@@H](OC(=O)N3Cc4cccc(F)c4C3)CN2C1=O` (single isomer, unassigned) [Compound 248], the concentration for half-maximal inhibition (IC50) was under 0.1 µM.

`CC(C)S(=O)(=O)NC(=O)[C@@]12C[C@H]1/C=C\CCCCC[C@H](NC(=O)OC1CCCC1)C(=O)N1C[C@H](OC(=O)N3CCc4ccccc4C3)C[C@H]1C(=O)N2` [Compound 118]: the IC50 was under 0.1 µM.

`CS(=O)(=O)NC(=O)[C@@]12C[C@H]1/C=C\CCCCC[C@H](NC(=O)OC1CCCC1)C(=O)N1C[C@H](OC(=O)N3CCc4ccccc4C3)C[C@H]1C(=O)N2` [Compound 119]: the IC50 is under 0.1 µM.

Regarding `COc1ccc(S(=O)(=O)NC(=O)[C@@]23C[C@H]2/C=C\CCCCC[C@H](NC(=O)OC2CCCC2)C(=O)N2C[C@H](OC(=O)N4CCc5ccccc5C4)C[C@H]2C(=O)N3)cc1` [Compound 120], the IC50 is under 0.1 µM.

Consider `CCOC(=O)[C@@]12C[C@H]1/C=C\CCCCC[C@H](NC(=O)OC(C)(C)C)C(=O)N1C[C@H](OC(=O)N3Cc4ccc(OCCN5CCOCC5)cc4C3)C[C@H]1C(=O)N2` [Compound 124], for which the IC50 is under 10 µM.

Take `CCOC(=O)[C@@]12C[C@H]1/C=C\CCCCC[C@H](NC(=O)OC(C)(C)C)C(=O)N1C[C@H](OC(=O)N3Cc4ccc(OCCNC(C)C)cc4C3)C[C@H]1C(=O)N2` [Compound 125]: the IC50 was under 10 µM.

In the case of `CCOC(=O)[C@@]12C[C@H]1/C=C\CCCCC[C@H](N)C(=O)N1C[C@H](OC(=O)N3Cc4ccc(OCCN5CCOCC5)cc4C3)C[C@H]1C(=O)N2` [Compound 126], the IC50 was over 10 µM.

With `CCOC(=O)[C@@]12C[C@H]1/C=C\CCCCC[C@H](NC(=O)OC(C)(C)C)C(=O)N1C[C@H](OC(=O)N3Cc4ccc(OCCN(C)C)cc4C3)C[C@H]1C(=O)N2` [Compound 127], the IC50 is under 10 µM.

For `CCOC(=O)[C@@]12C[C@H]1/C=C\CCCCC[C@H](N)C(=O)N1C[C@H](OC(=O)N3Cc4ccc(OCCNC(C)C)cc4C3)C[C@H]1C(=O)N2` [Compound 128], the IC50 was over 10 µM.

With `CCOC(=O)[C@@]12C[C@H]1/C=C\CCCCC[C@H](NC(=O)OC1CCCC1)C(=O)N1C[C@H](OC(=O)N3Cc4ccc(OCCN5CCOCC5)cc4C3)C[C@H]1C(=O)N2` [Compound 129], the IC50 is under 10 µM.

Consider `C[C@H](NC(=O)O[C@@H]1C[C@H]2C(=O)N[C@]3(C(=O)O)C[C@H]3/C=C\CCCCC[C@H](NC(=O)OC(C)(C)C)C(=O)N2C1)c1ccc(F)cn1` [Compound 147], for which the half-maximal inhibitory concentration (IC50) was over 10 µM.

As for `C[C@@H](NC(=O)O[C@@H]1C[C@H]2C(=O)N[C@]3(C(=O)O)C[C@H]3/C=C\CCCCC[C@H](NC(=O)OC(C)(C)C)C(=O)N2C1)c1ccc(F)cn1` [Compound 148], the IC50 was over 10 µM.

Turning to `CC(C)(C)OC(=O)N[C@H]1CCCCC/C=C\[C@@H]2C[C@@]2(C(=O)O)NC(=O)[C@@H]2C[C@@H](OC(=O)NCc3ccc(F)cn3)CN2C1=O` [Compound 151], the IC50 was under 10 µM.

Consider `CC(C)(C)OC(=O)N[C@H]1CCCCC/C=C\[C@@H]2C[C@@]2(CO)NC(=O)[C@@H]2C[C@@H](OC(=O)N3Cc4cccc(F)c4C3)CN2C1=O` [Compound 153, (2R,6S,13aS,14aR,16aS,Z)-6-(tert-botoxycarbonylamino)-14a-(hydroxymethyl)-5,16-dioxo-1,2,3,5,6,7,8,9,10,11,13a,14,14a,15,16,16a-hexadecahydrocyclopropa[e]pyrrolo[1,2-α][1,4]dizacyclopentadecin-2-yl-4-fluoroisoindoline-2-carboxylate], for which the IC50 was over 10 µM.

As to `CC(C)(C)OC(=O)N[C@H]1CCCCC/C=C\[C@@H]2C[C@@]2(CNS(=O)(=O)C2CC2)NC(=O)[C@@H]2C[C@@H](OC(=O)N3Cc4cccc(F)c4C3)CN2C1=O` [Compound 154], the IC50 is under 10 µM.

For the compound `CN(C)c1ccc(S(=O)(=O)NC(=O)[C@@]23C[C@H]2/C=C\CCCCC[C@H](NC(=O)OC2CCCC2)C(=O)N2C[C@H](OC(=O)N4CCc5ccccc5C4)C[C@H]2C(=O)N3)cc1` [Compound 183], the IC50 is under 0.1 µM.

Consider `Cc1noc(C)c1S(=O)(=O)NC(=O)[C@@]12C[C@H]1/C=C\CCCCC[C@H](NC(=O)OC1CCCC1)C(=O)N1C[C@H](OC(=O)N3CCc4ccccc4C3)C[C@H]1C(=O)N2` [Compound 187], for which the IC50 is under 0.1 µM.

On to `COc1cccc(S(=O)(=O)NC(=O)[C@@]23C[C@H]2/C=C\CCCCC[C@H](NC(=O)OC2CCCC2)C(=O)N2C[C@H](OC(=O)N4CCc5ccccc5C4)C[C@H]2C(=O)N3)c1` [Compound 188], for which the IC50 is under 0.1 µM.

Consider `O=C1N[C@]2(C(=O)NS(=O)(=O)C3CC3)C[C@H]2/C=C\CCCCC[C@H](Nc2c(N3C4CCC3CC4)c(=O)c2=O)C(=O)N2C[C@H](OC(=O)N3Cc4cccc(F)c4C3)C[C@@H]12` [Compound 199], for which the IC50 is under 0.1 µM.

As to `N[C@H]1CCCCC/C=C\[C@@H]2C[C@@]2(C(=O)NS(=O)(=O)Nc2ccc(Cl)cc2)NC(=O)[C@@H]2C[C@@H](OC(=O)N3Cc4ccccc4C3)CN2C1=O` [Compound 203], the IC50 was under 1 µM.

For the compound `CC(C)(C)OC(=O)N[C@H]1CCCCC/C=C\[C@@H]2C[C@@]2(C(=O)NS(=O)(=O)C2(C)CC2)NC(=O)[C@@H]2CCCN2C1=O` [Compound 300, (1S,4R,6S,14S) tert-butyl 4-Cyclopropanesulfonylaminocarbonyl-2,15-dioxo-3,16-diaza-tricyclo[14.3.0.0^4,6]nonadec-7-ene-14-yl carbamate], the IC50 was under 1 µM.

For `CC(C)(C)OC(=O)N[C@H]1CCCCC/C=C\[C@@H]2C[C@@]2(C(=O)NS(=O)(=O)C2(Cc3ccccc3)CC2)NC(=O)[C@@H]2CCCN2C1=O` [Compound 301], the IC50 was under 10 µM.

As to `COCC1(S(=O)(=O)NC(=O)[C@@]23C[C@H]2/C=C\CCCCC[C@H](NC(=O)OC(C)(C)C)C(=O)N2CCC[C@H]2C(=O)N3)CC1` [Compound 302], the IC50 is under 10 µM.

Regarding `CC(C)(C)OC(=O)N[C@H]1CCCCC/C=C\[C@@H]2C[C@@]2(C(=O)NS(=O)(=O)C(C)(C)C)NC(=O)[C@@H]2CCCN2C1=O` [Compound 303], the IC50 is over 10 µM.

For `CCCC1(S(=O)(=O)NC(=O)[C@@]23C[C@H]2/C=C\CCCCC[C@H](NC(=O)OC(C)(C)C)C(=O)N2CCC[C@H]2C(=O)N3)CC1` [Compound 304], the IC50 was under 10 µM.

`C=CCC1(S(=O)(=O)NC(=O)[C@@]23C[C@H]2/C=C\CCCCC[C@H](NC(=O)OC(C)(C)C)C(=O)N2CCC[C@H]2C(=O)N3)CC1` [Compound 305]: the IC50 was under 10 µM.

Regarding `CCOc1ccc2sc(S(=O)(=O)NC(=O)[C@@]34C[C@H]3/C=C\CCCCC[C@H](NC(=O)OC(C)(C)C)C(=O)N3CCC[C@H]3C(=O)N4)nc2c1` [Compound 306], the IC50 is over 10 µM.

With `CC(C)(C)OC(=O)N[C@H]1CCCCC/C=C\[C@@H]2C[C@@]2(C(=O)NS(=O)(=O)c2cc3ccccc3s2)NC(=O)[C@@H]2CCCN2C1=O` [Compound 307], the IC50 was under 10 µM.

Consider `Cc1noc(C)c1S(=O)(=O)NC(=O)[C@@]12C[C@H]1/C=C\CCCCC[C@H](NC(=O)OC(C)(C)C)C(=O)N1CCC[C@H]1C(=O)N2` [Compound 308], for which the IC50 is over 10 µM.

For the compound `CC(C)(C)OC(=O)N[C@H]1CCCCC/C=C\[C@@H]2C[C@@]2(C(=O)NS(=O)(=O)c2cccc3c(Cl)cccc23)NC(=O)[C@@H]2CCCN2C1=O` [Compound 309], the IC50 was under 10 µM.
